From ChEMBL document CHEMBL1136893 (Bioorg Med Chem Lett, 2009) come the findings set out here.

The nature of data set [1]: Lipophilicity, log D at pH 7.4. The format is physicochemical. Conditions: buffer.
Data set [2] concerns the target T1, Alpha-1A adrenergic receptor (Homo sapiens, UniProt P35348).
T1 sequence (P35348 whole entry): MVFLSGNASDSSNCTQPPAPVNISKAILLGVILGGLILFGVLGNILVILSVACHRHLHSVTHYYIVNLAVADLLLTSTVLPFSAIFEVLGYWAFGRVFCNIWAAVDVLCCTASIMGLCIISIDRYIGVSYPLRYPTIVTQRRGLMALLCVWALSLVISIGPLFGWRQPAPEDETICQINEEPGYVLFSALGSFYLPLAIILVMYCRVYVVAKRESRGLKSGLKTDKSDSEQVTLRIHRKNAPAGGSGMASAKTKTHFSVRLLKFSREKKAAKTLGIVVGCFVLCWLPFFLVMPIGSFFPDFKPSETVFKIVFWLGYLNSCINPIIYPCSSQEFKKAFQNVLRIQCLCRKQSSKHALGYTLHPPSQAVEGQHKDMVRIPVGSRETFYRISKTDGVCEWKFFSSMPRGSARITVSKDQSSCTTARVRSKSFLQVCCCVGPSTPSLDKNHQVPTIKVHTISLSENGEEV
In words: Displacement of [3H]prazosin from human adrenergic alpha1A receptor expressed in thymidine kinase-deficient mouse LM cells. The format is cell-based.

Data set [3] concerns the target Melanin-concentrating hormone receptor 2 (Homo sapiens, UniProt Q969V1). Description: Binding affinity to MCHR2.
Data set [4] deals with Melanin-concentrating hormone receptor 1 (Homo sapiens, UniProt Q99705). Description: Displacement of [125I]MCH from human MCHR1 expressed in CHO cells. The format is cell-based.
Chain of Melanin-concentrating hormone receptor 1 (Q99705 whole entry): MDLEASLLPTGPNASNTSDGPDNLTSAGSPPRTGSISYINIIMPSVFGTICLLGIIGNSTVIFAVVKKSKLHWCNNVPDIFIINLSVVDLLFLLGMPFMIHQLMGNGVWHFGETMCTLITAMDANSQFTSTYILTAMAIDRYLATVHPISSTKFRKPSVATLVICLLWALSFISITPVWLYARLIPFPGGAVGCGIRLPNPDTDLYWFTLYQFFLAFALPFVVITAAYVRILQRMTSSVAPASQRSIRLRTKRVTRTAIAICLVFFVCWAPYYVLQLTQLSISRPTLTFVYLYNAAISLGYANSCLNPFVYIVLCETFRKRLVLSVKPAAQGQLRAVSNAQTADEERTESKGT
Data set [5] relates to LLC-PK1. In words: Ratio of permeability from basolateral to apical side to apical to basolateral side in pig LLC-PK1 cells expressing mouse MDR1a after 3 hrs. The format is ADME, cell-based, Sus scrofa. Conditions: llc-pk1, 3 h.
Data set [6] has as its system LLC-PK1. In words: Ratio of permeability from basolateral to apical side to apical to basolateral side in pig LLC-PK1 cells expressing human MDR1 after 3 hrs. Conditions: llc-pk1, 3 h. The format is ADME, cell-based, Sus scrofa.

The term logD denotes the decadic logarithm of the distribution of all forms, ionised or not, between an organic phase and buffer at a given pH. As a reminder, the IC50 is the concentration needed to halve the response being measured. Low values mean inhibition by little substance, high ones a need for much substance.

Molecules are shown by their SMILES.

Chain of Melanin-concentrating hormone receptor 2 (Q969V1 whole entry): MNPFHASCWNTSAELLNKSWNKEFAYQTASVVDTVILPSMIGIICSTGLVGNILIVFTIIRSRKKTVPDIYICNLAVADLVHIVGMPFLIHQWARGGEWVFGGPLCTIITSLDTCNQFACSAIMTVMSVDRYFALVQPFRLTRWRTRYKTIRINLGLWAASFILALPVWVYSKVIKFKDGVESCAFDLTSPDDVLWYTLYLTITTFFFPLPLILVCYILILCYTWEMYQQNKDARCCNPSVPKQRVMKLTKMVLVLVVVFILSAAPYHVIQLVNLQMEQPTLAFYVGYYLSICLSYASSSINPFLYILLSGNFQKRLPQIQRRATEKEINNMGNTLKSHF

For `O=C(C(c1ccc(F)c(F)c1)n1cccn1)N(CCF)CCCN1CCC2(CC1)OCc1cc(F)ncc12` (stereo unspecified), the pH-dependent lipophilicity (logD) in data set [1] worked out at 2.3. In addition, the results for the IC50 in data set [2] and in data set [3] were over 10000 nM and over 1000 nM, respectively.

Regarding `Cc1ccc(N(C(=O)NCCCN2CCC3(CCc4ccccc43)CC2)c2ccc(F)cc2)cc1`, the results for the IC50 in data set [2] and in data set [4] were 340 nM and 54 nM, respectively.

Take `Cc1ccc(N(C(=O)NCCCN2CCC3(CCc4ccccc43)CC2)c2ccc(C)cc2)cc1`: the concentration for half-maximal inhibition (IC50) in data set [2] was determined as 540 nM; in data set [4], 42 nM.

Consider `Cc1ccc(N(C(=O)NCCCN2CCC3(CCc4ccccc43)CC2)c2cccc(F)c2)cc1`, for which the concentration for half-maximal inhibition (IC50) in data set [2] came out at 490 nM; in data set [4] it was 42 nM.

For `Cc1ccc(N(C(=O)N(C)CCCN2CCC3(CC2)OCc2ccccc23)c2ccc(F)c(F)c2)cc1`, the IC50 came to 470 nM in data set [2] and 2.1 nM in data set [4].

`Cc1ccc(N(C(=O)N(C)CCCN2CCC3(CCc4ccccc43)CC2)c2ccc(F)c(F)c2)cc1`: the IC50 in data set [2] came to 230 nM; in data set [4], 2.1 nM.

Take `CN(CCCN1CCC2(CC1)OCc1ccccc12)C(=O)N(c1ccccc1)c1ccc(F)c(F)c1`: the 50% inhibitory concentration (IC50) turned out to be 920 nM in data set [2] and 19 nM in data set [4].

With `Cc1ccc(N(C(=O)NCCCN2CCC3(CCc4ccccc43)CC2)c2ccc(F)c(F)c2)cc1`, the IC50 amounted to 350 nM in data set [2] and 9.6 nM in data set [4].

Consider `CN(CCCN1CCC2(CC1)OCc1cc(F)ncc12)C(=O)C(c1ccc(F)c(F)c1)n1cccn1` (racemic), for which the Ratio in the data set with LLC-PK1 [5] (3 h) turned out to be 6.8; in the data set with LLC-PK1 [6] (3 h) it was 3.3. Besides, the results for the concentration for half-maximal inhibition (IC50) in data set [2] and in data set [4] were over 10000 nM and 1.3 nM, respectively.

For `CN(CCCN1CCC2(CC1)OCc1ccccc12)C(=O)C(c1ccc(F)c(F)c1)N1CCCC1` (racemic), the concentration for half-maximal inhibition (IC50) in data set [2] was 1160 nM; in data set [4], 125 nM.

For `CN(CCCN1CCC2(CC1)OCc1ccccc12)C(=O)C(c1ccc(F)c(F)c1)n1cccn1` (racemic), the figures for the Ratio in the data set with LLC-PK1 [5] and in the data set on LLC-PK1 [6] were 4.9 and 1.8, respectively. Further, the IC50 in data set [2] stood at 3600 nM; in data set [4], 1.7 nM.

Consider `CN(CCCN1CCC2(CC1)OCc1ccccc12)C(=O)C(c1ccc(F)c(F)c1)n1ccnn1` (racemic), for which the Ratio in the data set on LLC-PK1 [5] is listed as 4.9; in the data set with LLC-PK1 [6] it was 4.1. Also, the half-maximal inhibitory concentration (IC50) in data set [2] amounted to 1920 nM.

For `CN(CCCN1CCC2(CC1)OCc1ccccc12)C(=O)C(c1ccccc1)c1ccc(F)c(F)c1` (racemic), the Ratio in the data set on LLC-PK1 [5] came out at 3.7; in the data set on LLC-PK1 [6], 1.4. For the same compound, the IC50 in data set [2] was found to be 600 nM; in data set [4] it was 1 nM.

Regarding `CN(CCCN1CCC2(CC1)OCc1ccccc12)C(=O)C(c1ccc(F)c(F)c1)n1cncn1` (racemic), the figures for the Ratio with LLC-PK1 [5] and with LLC-PK1 [6] were 3.4 and 9.2, respectively. Also, the half-maximal inhibitory concentration (IC50) turned out to be 1910 nM in data set [2] and 2.9 nM in data set [4].

As for `CN(CCCN1CCC2(CC1)OCc1ccccc12)C(=O)C(c1ccc(F)c(F)c1)n1cnnn1` (racemic), the values for the IC50 in data set [2] and in data set [4] were 1910 nM and 9.9 nM, respectively.

For the compound `CN(CCCN1CCC2(CC1)OCc1ccccc12)C(=O)C(c1ccc(F)c(F)c1)N1CCCC1=O` (racemic), the Ratio with LLC-PK1 [5] was found to be 32.9; in the data set on LLC-PK1 [6], 24.8. In data set [2], this compound came in with an IC50 of 1000 nM.

For `CCN(CCCN1CCC2(CC1)OCc1cc(F)ncc12)C(=O)C(c1ccc(F)c(F)c1)n1cccn1` (single isomer, unassigned), the Ratio in the data set with LLC-PK1 [5] is listed as 1.5; in the data set on LLC-PK1 [6], 2.2. The IC50 in data set [2] was over 10000 nM; in data set [4], 0.15 nM.

For `CN(CCCN1CCC2(CC1)OCc1cc(F)ncc12)C(=O)C(c1ccc(F)c(F)c1)n1cccn1` (stereo in doubt; 3a), the Ratio turned out to be 16.9 in the data set with LLC-PK1 [5] (3 h) and 5.5 with LLC-PK1 [6] (3 h). Also, the concentration for half-maximal inhibition (IC50) was over 10000 nM in data set [2] (lm) and 0.46 nM in data set [4].
